Results taken from US8232288B2, “Substituted benzimidazoles, benzothiazoles and benzoxazoles” (Gruenenthal GmbH, priority 2009, dated 2012).

What was measured:
[1] = molecular target: T1, human B1R receptor (hB1R) (Homo sapiens, UniProt P46663); assay: Functional investigation on the bradykinin receptor 1 (B1R), FLIPR Ca2+ assay, hB1R cells; format: cell-based
T1 construct: expressed in transfected cells; host or cells: CHO K1 cells
T1 sequence (P46663 1-353): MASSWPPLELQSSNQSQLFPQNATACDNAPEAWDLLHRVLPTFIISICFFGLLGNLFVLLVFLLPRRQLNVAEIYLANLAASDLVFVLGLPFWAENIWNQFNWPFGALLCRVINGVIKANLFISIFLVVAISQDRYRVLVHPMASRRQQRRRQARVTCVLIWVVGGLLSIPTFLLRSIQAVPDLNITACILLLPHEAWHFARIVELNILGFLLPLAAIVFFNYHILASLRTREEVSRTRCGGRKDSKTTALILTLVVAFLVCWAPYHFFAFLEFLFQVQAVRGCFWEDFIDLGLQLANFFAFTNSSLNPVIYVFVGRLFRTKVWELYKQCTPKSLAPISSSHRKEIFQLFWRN
Description: (§1) The agonistic or antagonistic action of substances can be quantified on the bradykinin receptor 1 (B1R) of the human and rat species with ectopically expressing cell lines (CHO K1 cells) and with the aid of a Ca^2+-sensitive dyestuff (Fluo-4) in a fluorescent imaging plate reader (FLIPR). The figure in % activation is based on the Ca^2+ signal after addition of Lys-Des-Arg^9-bradykinin (0.5 nM) or Des-Arg^9-bradykinin (100 nM). Antagonists lead to a suppression of the Ca^2+ inflow after addition of the agonist. % inhibition compared with the maximum achievable inhibition is stated.
(§2) The agonistic or antagonistic action of substances can be determined on the bradykinin receptor 1 (B1R) of the human and rat species with the following assay. In accordance with this assay, the Ca^2+ inflow through the channel is quantified with the aid of a Ca^2+-sensitive dyestuff (type Fluo-4, Molecular Probes Europe BV, Leiden Holland) in a fluorescent imaging plate reader (FLIPR, Molecular Devices, Sunnyvale, USA).
(§3) Chinese hamster ovary cells (CHO K1 cells) transfected stably with the human B1R gene (hB1R cells) or the B1R gene of the rat (rB1R cells) are used. For functional studies, these cells are plated out on black 96-well plates with a clear base (BD Biosciences, Heidelberg, Germany or Greiner, Frickenhausen, Germany) in a density of 20,000-35,000 cells/well. The cells are left overnight at 37° C. and 5% CO2 in culture medium (hB1R cells: Nutrient Mixture Ham's F12, Gibco Invitrogen GmbH, Karlsruhe, Germany or DMEM, Sigma-Aldrich, Taufkirchen, Germany; rB1R cells: D-MEM/F12, Gibco Invitrogen GmbH, Karlsruhe, Germany) with 10 vol. % FBS (foetal bovine serum, Gibco Invitrogen GmbH, Karlsruhe, Germany or PAN Biotech GmbH, Aidenbach, Germany). On the following day, the cells are loaded for 60 min at 37° C. with 2.13 μM Fluo-4 (Molecular Probes Europe BV, Leiden Holland) in HBSS buffer (Hank's buffered saline solution, Gibco Invitrogen GmbH, Karlsruhe, Germany) with 2.5 mM probenecid (Sigma-Aldrich, Taufkirchen, Germany) and 10 mM HEPES (Sigma-Aldrich, Taufkirchen, Germany). The plates are then washed 2× with HBSS buffer, and HBSS buffer which additionally contains 0.1% BSA (bovine serum albumin; Sigma-Aldrich, Taufkirchen, Germany), 5.6 mM glucose and 0.05% gelatine (Merck KGaA, Darmstadt, Germany) is added. After a further incubation of 20 minutes at room temperature, the plates are inserted into the FLIPR for the Ca^2+ measurement.
(§4) Alternatively, the plates are washed with buffer A (15 mM HEPES, 80 mM NaCl, 5 mM KCl, 1.2 mM CaCl2, 0.7 mM MgSO4, 2 g/l glucose, 2.5 mM probenecid), buffer A is added and the plates are loaded with 2.5 μM Fluo-4 and 0.025% Pluronic F127 (Sigma-Aldrich, Taufkirchen, Germany). Thereafter, the cells are washed 2× with buffer A and incubated for 30 minutes at room temperature with buffer A, which additionally contains 0.05% BSA and 0.05% gelatine, and thereafter inserted into the FLIPR for the Ca^2+ measurement.
(§5) The Ca^2+-dependent fluorescence is measured here before and after addition of substances (λex=488 nm, λem=540 nm). Quantification is by measurement of the highest fluorescence intensity (FC, fluorescence counts) over time.
(§6) The FLIPR protocol consists of 2 additions of substance. Test substances (10 μM) are first pipetted on to the cells and the Ca^2+ inflow is compared with the control (hB1R: Lys-Des-Arg^9-bradykinin>=50 nM; rB1R: Des-Arg^9-bradykinin 10 μM). This gives the result in % activation based on the Ca^2+ signal after addition of Lys-Des-Arg^9-bradykinin (>=50 nM) or Des-Arg^9-bradykinin (10 μM). After incubation for 10-20 minutes, Lys-Des-Arg^9-bradykinin (hB1R) or Des-Arg^9-bradykinin (rB1R) in the concentration of the EC80 is applied and the inflow of Ca^2+ is likewise determined. Antagonists lead to a suppression of the Ca^2+ inflow. % inhibition compared with the maximum achievable inhibition is calculated.
(§7) In order to determine the IC50 value, the substances are added in various concentrations. […]

[2] = molecular target: T2, B1R receptor of the rat (rB1R) (Rattus norvegicus, UniProt P97583); assay: Functional investigation on the bradykinin receptor 1 (B1R), FLIPR Ca2+ assay, rB1R cells; format: cell-based
T2 construct: expressed in transfected cells; host or cells: CHO K1 cells
T2 sequence (P97583 1-337): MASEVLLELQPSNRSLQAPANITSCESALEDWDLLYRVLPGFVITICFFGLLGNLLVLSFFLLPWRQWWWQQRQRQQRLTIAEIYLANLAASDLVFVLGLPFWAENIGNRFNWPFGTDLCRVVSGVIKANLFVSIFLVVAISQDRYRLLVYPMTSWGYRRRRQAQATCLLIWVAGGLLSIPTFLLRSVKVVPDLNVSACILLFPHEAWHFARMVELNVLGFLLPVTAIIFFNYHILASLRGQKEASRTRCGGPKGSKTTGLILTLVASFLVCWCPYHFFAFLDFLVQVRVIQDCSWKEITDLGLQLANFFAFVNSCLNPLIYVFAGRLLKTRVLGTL
Description: as §1, §2, §3, §4, §5, §6, §7

SMILES | inhibition at 10 µM [1] | inhibition at 10 µM [2]
O=C1c2c(Cl)cccc2CN1Cc1nc2cccc(C(=O)N3CCC4(CC3)CCN(c3ccncc3)C4)c2[nH]1 [I_CC-13, 7-chloro-2-[[7-(3-pyridin-4-yl-3,8-diazaspiro[4.5]decane-8-carbonyl)-1H-benzoimidazol-2-yl]-methyl]-2,3-dihydro-isoindol-1-one] | 71% | 49%
COc1cc(C)c(S(=O)(=O)N(C)c2nc3c(C(=O)N4CCC5(CC4)CCN(c4ccncc4)C5)cccc3s2)c(C)c1 [I_CC-21, 4-methoxy-N,2,6-trimethyl-N-[4-(3-pyridin-4-yl-3,8-diazaspiro[4.5]decane-8-carbonyl)-benzothiazol-2-yl]-benzenesulfonic acid amide] | 36% | 65%
Cc1cccc(Cl)c1S(=O)(=O)N(C)Cc1nc2ccc(C(=O)N3CCC4(CC3)CCN(c3ccncc3)CC4)cc2[nH]1 [I_23, 2-chloro-N,6-dimethyl-N-[[6-(9-pyridin-4-yl-3,9-diazaspiro[5.5]undecane-3-carbonyl)-1H-benzoimidazol-2-yl]-methyl]-benzenesulfonic acid amide] | 100% | 101%
COc1cc(C)c(S(=O)(=O)N(C)C(C)c2nc3cccc(C(=O)N4CCC5(CCN(Cc6ccc(F)c(F)c6)CC5)CC4)c3[nH]2)c(C)c1 (stereo not shown) [I_CC-30, N-[1-[7-[9-[(3,4-Difluoro-phenyl)-methyl]-3,9-diazaspiro[5.5]undecane-3-carbonyl]-1H-benzoimidazol-2-yl]-ethyl]-4-methoxy-N,2,6-trimethyl-benzenesulfonic acid amide] | 63% | 99%
COc1cc(C)c(C(=O)N(C)Cc2nc3cccc(C(=O)N4CCC5(CC4)CCN(c4ccncc4)C5)c3[nH]2)c(C)c1 [I_CC-24, 4-methoxy-N,2,6-trimethyl-N-[[7-(3-pyridin-4-yl-3,8-diazaspiro[4.5]decane-8-carbonyl)-1H-benzoimidazol-2-yl]-methyl]-benzamide] | 98% | 101%
COc1cc(C)c(S(=O)(=O)N(C)Cc2nc3c(C(=O)N4CCC5(CC4)CCN(c4ccncc4)CC5)cccc3s2)c(C)c1 [I_CC-22, 4-methoxy-N,2,6-trimethyl-N-[[4-(3-pyridin-4-yl-3,9-diazaspiro[5.5]undecane-9-carbonyl)-benzothiazol-2-yl]-methyl]-benzenesulfonic acid amide] | 95% | 93%

More lines, now with the values ahead:

inhibition at 10 µM [1] | inhibition at 10 µM [2] | SMILES
96% | 90% | COc1cc(C)c(S(=O)(=O)N(C)c2nc3cccc(C(=O)N4CCC5(CC4)CCN(c4ccncc4)CC5)c3n2C)c(C)c1 [I_CC-14, 4-methoxy-N,2,6-trimethyl-N-[1-methyl-7-(3-pyridin-4-yl-3,9-diazaspiro[5.5]undecane-9-carbonyl)-1H-benzoimidazol-2-yl]-benzenesulfonic acid amide]
71% | 89% | COc1cc(C)c(S(=O)(=O)N(C)C(C)c2nc3cccc(C(=O)N4CCC5(CC4)CCN(C(=O)c4cc(C)nn4C(C)(C)C)CC5)c3[nH]2)c(C)c1 (stereo not shown) [I_CC-55, N-[1-[7-[9-(2-tert-Butyl-5-methyl-2H-pyrazole-3-carbonyl)-3,9-diazaspiro[5.5]undecane-3-carbonyl]-1H-benzoimidazol-2-yl]-ethyl]-4-methoxy-N,2,6-trimethyl-benzenesulfonic acid amide]
18% | 101% | COc1cc(C)c(S(=O)(=O)N(C)C(C)c2nc3cccc(C(=O)N4CCC5(CC4)CCN(S(=O)(=O)c4ccc(F)c(C#N)c4)CC5)c3[nH]2)c(C)c1 (stereo not shown) [I_CC-58, N-[1-[7-[9-[(3-Cyano-4-fluoro-phenyl)sulfonyl]-3,9-diazaspiro[5.5]undecane-3-carbonyl]-1H-benzoimidazol-2-yl]-ethyl]-4-methoxy-N,2,6-trimethyl-benzenesulfonic acid amide]
94% | 90% | COc1cc(C)c(S(=O)(=O)N(C)C(C)c2nc3cccc(C(=O)N4CCC5(CC4)CCN(c4ccncc4)CC5)c3[nH]2)c(C)c1 (stereo not shown) [I_06, 4-methoxy-N,2,6-trimethyl-N-[1-[7-(9-pyridin-4-yl-3,9-diazaspiro[5.5]undecane-3-carbonyl)-1H-benzoimidazol-2-yl]-ethyl]-benzenesulfonic acid amide]
99% | 86% | COc1cc(C)c(S(=O)(=O)N(C)Cc2nc3cccc(C(=O)N4CCC5(CCC(Oc6ccncc6)CC5)CC4)c3[nH]2)c(C)c1 [I_03, 4-methoxy-N,2,6-trimethyl-N-[[7-(9-pyridin-4-yloxy-3-azaspiro[5.5]undecane-3-carbonyl)-1H-benzoimidazol-2-yl]-methyl]-benzenesulfonic acid amide]
68% | 104% | COc1cc(C)c(S(=O)(=O)N(C)C(C)c2nc3cccc(C(=O)N4CCC5(CCN(Cc6[nH]cnc6C)CC5)CC4)c3[nH]2)c(C)c1 (stereo not shown) [I_CC-35, 4-Methoxy-N,2,6-trimethyl-N-[1-[7-[9-[(5-methyl-3H-imidazol-4-yl)-methyl]-3,9-diazaspiro[5.5]undecane-3-carbonyl]-1H-benzoimidazol-2-yl]-ethyl]-benzenesulfonic acid amide]
99% | 104% | COc1cc(C)c(S(=O)(=O)N(C)Cc2nc3cccc(C(=O)N4CCC5(CCN(c6ccncc6)CC5)C4)c3[nH]2)c(C)c1 [I_09, 4-methoxy-N,2,6-trimethyl-N-[[7-(8-pyridin-4-yl-3,8-diazaspiro[4.5]decane-3-carbonyl)-1H-benzoimidazol-2-yl]-methyl]-benzenesulfonic acid amide]
80% | 101% | COc1cc(C)c(S(=O)(=O)N(C)C(C)c2nc3cccc(C(=O)N4CCC5(CCN(Cc6c[nH]c(C)n6)CC5)CC4)c3[nH]2)c(C)c1 (stereo not shown) [I_CC-37, 4-Methoxy-N,2,6-trimethyl-N-[1-[7-[9-[(2-methyl-1H-imidazol-4-yl)-methyl]-3,9-diazaspiro[5.5]undecane-3-carbonyl]-1H-benzoimidazol-2-yl]-ethyl]-benzenesulfonic acid amide]
